Results on 14 compounds are retold here after PubChem BioAssay (NCI).

As a reminder, the TGI is the concentration at which net growth stops. Lower therefore signals greater sensitivity of the cells. What is called GI50 is the concentration that inhibits growth by half.

Common to all, as to test: DTP human tumour cell line panel, 48 h
Assay [1] deals with K-562 leukemia.
Assay [2] has as its system COLO 205 colon.
For assay [3], the system named is SF-539 CNS.
The subject of assay [4] is SF-268 CNS.
For assay [5], the system named is SK-MEL-5 melanoma.
Assay [6] relates to EKVX NSCLC.
The test system of assay [7] is KM12 colon.
Assay [8] concerns OVCAR-5 ovarian.
In assay [9] the test system is HCT-15 colon.
The subject of assay [10] is SF-295 CNS.

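These data come from cells grown in 96-well plates and exposed to compound for 48 hours at five concentrations. GI50 marks 50% less growth. TGI: concentration producing complete growth inhibition.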 Where a SMILES comes first, the peptide text is derived from it.

As to `COC(=O)N/N=C(/CCC(=O)Nc1ccc(C)c(C)c1)CC(=O)C(C)(C)C`, the TGI in assay [1], in assay [2], in assay [3], in assay [4], in [5] and in assay [6] was > 100 µM each time. In addition, the TGI in assay [7], in assay [8], in [9] and in assay [10] was > 100 µM each time.

`NCCOc1ccccc1/C=C1\c2ccccc2-c2ccc([N+](=O)[O-])cc21`: the GI50 in assay [2] is 1.75 µM; in [3], 1.79 µM; in assay [4], 1.58 µM; in assay [5], 1.8 µM; in assay [6] it was 1.55 µM; in assay [7] it was 1.55 µM. For the same compound, the GI50 in [8] is 1.61 µM; in [9], 1.2 µM; in assay [10], 1.7 µM. The TGI in [2] worked out at 3.44 µM; in assay [3] it was 3.18 µM; in assay [4], 3.15 µM; in [5], 3.22 µM; in [6], 2.99 µM; in [7], 2.94 µM. Also, the values for the TGI in assay [8], in assay [9] and in assay [10] were 3.06 µM, 2.53 µM and 3.18 µM, respectively.

Turning to `C#CC1(O)c2ccccc2C(=O)c2ccccc21`, the TGI in [1], in [2], in [3], in [4], in [6] and in assay [7] was > 100 µM throughout. For the same compound, the concentration for total growth inhibition (TGI) in assay [8] and in assay [10] was > 100 µM in each case.

`CCN(CC)C(=O)N1CCN(C=S)CC1`: the TGI in assay [1], in [2], in assay [3], in assay [4], in assay [5] and in assay [6] was > 100 µM throughout. The TGI in assay [7], in assay [8] and in [9] was > 100 µM each time.

For `O=C1Nc2ccccc2/C1=C\c1nc(C2CCN(S(=O)(=O)c3ccc(F)cc3)CC2)n2ccccc12`, the GI50 in assay [1] is > 100 µM; in assay [2], > 100 µM; in [3], 1.39 µM; in assay [4], 1.9 µM; in [6], 4.87 µM; in assay [8], 5.16 µM. Also, the results for the GI50 in assay [9] and in assay [10] were > 100 µM and 2.25 µM, respectively. In addition, the TGI in assay [1] is > 100 µM; in assay [2], > 100 µM; in assay [3], 3.07 µM; in assay [4], 13.8 µM; in assay [6], > 100 µM; in assay [8], > 100 µM. Besides, the TGI was > 100 µM in assay [9] and 11.2 µM in assay [10].

As to `O=[N+]([O-])c1cc(Cl)ccc1OCc1ccccc1`, the TGI in assay [1] is > 100 µM; in assay [2], > 100 µM; in assay [3], > 100 µM; in [4], > 100 µM; in assay [5], 70.5 µM; in assay [6] it was > 100 µM. The concentration for total growth inhibition (TGI) in assay [7], in assay [9] and in [10] was > 100 µM in each case.

Take `Oc1ccc(CCNCc2cc3c(cc2Br)OCO3)cc1`: the TGI in assay [1] was > 100 µM; in assay [2], 40.8 µM; in [3] it was > 100 µM; in assay [4], > 100 µM; in assay [5], > 100 µM; in assay [6] it was > 100 µM. Also, the TGI in assay [8], in assay [9] and in assay [10] was > 100 µM each time.

As for `CCCCN(CCCC)CCC(O)c1cc2c(Cl)cc(Cl)cc2c2cc(C(F)(F)F)ccc12` (stereo unspecified), the concentration for total growth inhibition (TGI) was found to be 22.4 µM in assay [1]; 23.6 µM in [2]; 30.1 µM in [3]; 24.4 µM in [4]; 29.1 µM in [6]; 26 µM in assay [8]. In addition, the TGI in assay [9] is 19.1 µM; in [10], 25.4 µM.

Take `CC1=C(C(=O)Nc2ccc([N+](=O)[O-])cc2)C(c2ccc3c(c2)OCO3)C(C(=O)Nc2ccc([N+](=O)[O-])cc2)=C(C)N1`: the TGI in [1] was > 100 µM; in assay [2], 18.4 µM; in assay [3], > 100 µM; in [4] it was > 100 µM; in assay [6], > 100 µM; in assay [7], 24.9 µM. The TGI in [8], in assay [9] and in assay [10] was > 100 µM throughout.

Consider `Cc1ccc(NC(=S)SCCC(=O)O)cc1`, for which the TGI in [1], in [2], in [3], in assay [4], in assay [6] and in assay [7] was > 100 µM each time. The TGI in assay [8], in assay [9] and in assay [10] was > 100 µM each time.

Turning to `CCOC(=N)CC(=O)Nc1cccc(Cl)c1`, the TGI in [1], in assay [2], in [3], in [4], in assay [5] and in assay [6] was > 100 µM each time. In addition, the TGI in assay [7], in assay [8] and in assay [10] was > 100 µM throughout.

Consider `Cc1ccn2c(CCc3nnc4cc(C)ccn34)nnc2c1`, for which the TGI in assay [2], in assay [3], in [4], in assay [5], in [6] and in assay [7] was > 100 µM in each case. For the same compound, the TGI in [8], in assay [9] and in [10] was > 100 µM each time.

Take `CCC(C)C1NC(=O)C2CCCN2C(=O)CNC(=O)C(C)NC(=O)C(Cc2ccccc2)NC(=O)C(C(C)C)NC1=O` (stereo unspecified) (cyclo(GPIVFA); configuration not given here): the TGI in assay [2], in [3], in [4], in assay [5], in [6] and in [7] was > 100 µM throughout. Besides, the TGI in assay [8], in [9] and in assay [10] was > 100 µM each time.

Turning to `COc1cc2c(cc1OC)NC(=O)NC(Cc1ccc3c(c1)OCO3)CC2` (stereo unspecified), the TGI in assay [1], in [2], in assay [4], in assay [5], in assay [6] and in assay [7] was > 100 µM in each case. The TGI in assay [8], in [9] and in assay [10] was > 100 µM throughout.
